Patent publication EP2604265A1, “P2x7 antagonists as frontline or adjunctive treatment against status epilepticus” (Royal College of Surgeons in Ireland (RCSI), priority 2011, dated 2013)

Key:
P2X7R = target: T1, P2X7R (Mus musculus, UniProt Q9Z1M0); experiment: Fura-2 calcium microfluorimetry, BzATP-evoked calcium entry; type: cell-based; conditions: cultured hippocampal neurons; BzATP 100 µM; BBG 1 µM
T1 construct: endogenous in cells; host or cells: primary hippocampal neurons from E17 mouse embryos
T1 sequence (Q9Z1M0 1-595): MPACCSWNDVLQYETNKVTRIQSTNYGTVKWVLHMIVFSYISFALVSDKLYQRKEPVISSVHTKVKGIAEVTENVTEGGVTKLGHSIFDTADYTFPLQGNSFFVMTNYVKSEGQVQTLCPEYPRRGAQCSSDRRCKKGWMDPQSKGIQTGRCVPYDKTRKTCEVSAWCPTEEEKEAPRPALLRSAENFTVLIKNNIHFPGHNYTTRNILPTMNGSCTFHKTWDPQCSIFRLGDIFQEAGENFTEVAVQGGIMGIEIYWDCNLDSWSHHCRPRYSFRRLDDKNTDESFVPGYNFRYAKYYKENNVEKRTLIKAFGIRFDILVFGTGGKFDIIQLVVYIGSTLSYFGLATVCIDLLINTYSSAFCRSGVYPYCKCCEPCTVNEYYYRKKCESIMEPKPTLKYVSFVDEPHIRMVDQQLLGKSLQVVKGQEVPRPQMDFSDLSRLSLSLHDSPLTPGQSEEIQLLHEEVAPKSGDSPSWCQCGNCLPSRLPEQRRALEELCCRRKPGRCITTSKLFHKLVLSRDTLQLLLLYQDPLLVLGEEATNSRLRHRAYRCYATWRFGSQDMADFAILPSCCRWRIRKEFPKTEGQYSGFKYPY
Experimental: (§1) Hippocampal neurons were prepared as described previously (Diaz-Hernandez et al., 2008). Briefly, hippocampi were obtained from E17 mouse embryos and, after dissection and washing three times in Ca^2+/Mg^2+-free HBSS, tissue was digested in the same solution with 0.25% trypsin for 15 min at 37°C. Hippocampi were then washed three times in Ca^2+/Mg^2+-free HBSS and dissociated with a firepolished Pasteur pipette. Cells were counted, resuspended in plating medium (MEM, 10% fetal bovine serum, 0.6% glucose) and plated at a density of 5,000 cells/cm^2 on poly-L-lysine coated coverslips (1 mg/ml). After plating, neurons were cultured for 24-72 h in neuronal culture medium (Neurobasal, B-27, glutamax-I). For biochemical experiments, hippocampal neurons were plated on polylysine-coated (1 mg/ml) 60-mm plates at a density of 200,000 cells/cm^2, and cultured for 72 h in neuronal culture medium. AraC was added at a final concentration of 5 µM after 2 days in culture.
(§2) Calcium microfluorimetric analysis in single neurons was carried out according to (Diaz-Hernandez et al., 2001). […]
(§3) Neurons were visualized using a Plan Fluor x40 S/0.5-1.3 oil lens. […] The background was subtracted at each wavelength and the 340 / 380 ratio was calculated. The data are represented as the normalized F340/F380 fluorescence ratio, which increases as [Ca^2+]i increases.

glutamate receptors = experiment: Fura-2 calcium microfluorimetry, glutamate-evoked calcium entry; type: cell-based, mouse; conditions: cultured hippocampal neurons; glutamate 100 µM; BBG 1 µM
Experimental: as §1, §2, §3

SMILES: CCOc1ccc(Nc2ccc(C(=C3C=CC(=[N+](CC)Cc4cccc(S(=O)(=O)[O-])c4)C=C3C)c3ccc(N(CC)Cc4cccc(S(=O)(=O)O)c4)cc3C)cc2)cc1 [BBG, Brilliant Blue G]
- P2X7R-gated (BzATP-induced) calcium entry (P2X7R): effective to block
- glutamate-induced calcium entry (glutamate receptors): failed to alter
